Active and inactive are the calls of the source. The calls are words filed in the database; no cut-off is given here.
Legend:
[1] = Selectivity index, ratio of CC50 for MDCK cells to EC50 for antiviral activity against Influenza A virus H1N1 (A/Puerto Rico/8/34) infected in MDCK cells; assay type: toxicity, cell-based; settings: dog, read-out: Ratio CC50/EC50
[2] = Cytotoxicity against MDCK cells by CCK-8 assay; assay type: toxicity, cell-based, Canis lupus familiaris; settings: dog
Influenza A virus = experiment: Antiviral activity against Influenza A virus H1N1 (A/Puerto Rico/8/34) infected in MDCK cells assessed as reduction in virus-induced cytopathic effect incubated for 48 hrs by CCK8 assay; assay type: functional, organism-based
Influenza B virus [3] = experiment: Antiviral activity against influenza B virus Victoria/2/87 infected in MDCK cells; assay type: functional, organism-based; settings: Victoria/2/87, MDCK
Influenza B virus [4] = experiment: Antiviral activity against influenza B virus B/Yamagata/16/88 infected in MDCK cells; assay type: functional, organism-based; settings: B/Yamagata/16/88, MDCK

Cc1ncn(-c2ccc(NC(=S)NC(=O)c3ccc(C(C)(C)C)cc3)cc2)n1
selectivity ratio [1]: 3.1
CC50 [2]: 52700 nM
EC50 (Influenza A virus): 16900 nM

CC(C)(C)c1ccc(C(=O)N2C(=O)CN(c3ccccc3F)C2=S)cc1
selectivity ratio [1]: 7.1
CC50 [2]: 25400 nM
EC50 (Influenza A virus): 3600 nM

CC(C)(C)C(=O)Nc1ccc(NC(=S)NC(=O)c2ccc(C(C)(C)C)cc2)cc1
selectivity ratio [1]: 5400
CC50 [2]: 81000 nM
EC50 (Influenza A virus): 15 nM

CC(=O)Nc1ccc(NC(=S)NC(=O)c2ccccc2)cc1
Activity (Influenza A virus): inactive

CC(C)(C)c1ccc(C(=O)NC(=S)Nc2ccc(F)cc2F)cc1
selectivity ratio [1]: 133
CC50 [2]: 95700 nM
EC50 (Influenza A virus): 720 nM

CC(C)(C)c1ccc(C(=O)NC(=S)Nc2cccc(F)c2)cc1
selectivity ratio [1]: 555
CC50 [2]: 50500 nM
EC50 (Influenza A virus): 91 nM

COc1ccccc1NC(=S)NC(=O)c1ccc(C(C)(C)C)cc1
selectivity ratio [1]: > 909
CC50 [2]: > 100000 nM
EC50 (Influenza A virus): 110 nM

Cc1ccccc1NC(=S)NC(=O)c1ccc(C(C)(C)C)cc1
selectivity ratio [1]: > 2630
CC50 [2]: > 100000 nM
EC50 (Influenza A virus): 38 nM

CC(C)(C)c1ccc(C(=O)NC(=S)Nc2ccccn2)cc1
selectivity ratio [1]: > 314
CC50 [2]: > 100000 nM
EC50 (Influenza A virus): 319 nM

O=C(NC(=S)Nc1ccccc1F)c1cc2ccccc2s1
selectivity ratio [1]: > 10
CC50 [2]: > 100000 nM
EC50 (Influenza A virus): 10000 nM

COc1cccc(C(=O)NC(=S)Nc2ccc(NC(C)=O)cc2)c1
Activity (Influenza A virus): inactive

CCc1ccc(C(=O)Nc2ccc(NC(=S)NC(=O)c3ccc(C(C)(C)C)cc3)cc2)cc1
selectivity ratio [1]: > 100000
CC50 [2]: > 100000 nM
EC50 (Influenza A virus): 1 nM

CC(=O)Nc1ccc(NC(=S)NC(=O)c2ccc(C(C)(C)C)cc2)cc1
selectivity ratio [1]: 200
CC50 [2]: 50000 nM
EC50 (Influenza A virus): 250 nM

COc1ccc(C(=O)Nc2ccc(NC(=S)NC(=O)c3ccc(C(C)(C)C)cc3)cc2)cc1
EC50 (Influenza B virus [3]): 400 nM
selectivity ratio [1]: 24100
EC50 (Influenza B virus [4]): 300 nM
CC50 [2]: 72200 nM
EC50 (Influenza A virus): 3 nM

CCCCCc1ccc(C(=O)Nc2ccc(NC(=S)NC(=O)c3ccc(C(C)(C)C)cc3)cc2)cc1
selectivity ratio [1]: 7720
CC50 [2]: 77200 nM
EC50 (Influenza A virus): 10 nM

CC(C)(C)c1ccc(C(=O)NC(=S)Nc2ccc(-n3cncn3)cc2)cc1
selectivity ratio [1]: 77.1
CC50 [2]: 54000 nM
EC50 (Influenza A virus): 700 nM

CC(=O)Nc1ccc(NC(=S)NC(=O)c2cccs2)cc1
selectivity ratio [1]: 21.4
CC50 [2]: 52200 nM
EC50 (Influenza A virus): 2440 nM

Cc1ccc(NC(=S)NC(=O)c2ccc(C(C)(C)C)cc2)c(Br)c1
EC50 (Influenza B virus [3]): 6200 nM
selectivity ratio [1]: 1280
EC50 (Influenza B virus [4]): 3200 nM
CC50 [2]: 41100 nM
EC50 (Influenza A virus): 32 nM

CCCCc1ccc(C(=O)Nc2ccc(NC(=S)NC(=O)c3ccc(C(C)(C)C)cc3)cc2)cc1
selectivity ratio [1]: > 12500
CC50 [2]: > 100000 nM
EC50 (Influenza A virus): 8 nM

CC(C)(C)c1ccc(C(=O)NC(=S)Nn2cnnc2)cc1
selectivity ratio [1]: 74.9
CC50 [2]: 65900 nM
EC50 (Influenza A virus): 880 nM

CC(C)(C)c1ccc(C(=O)NC(=S)Nc2ccc(NC(=O)c3ccc(Br)cc3)cc2)cc1
selectivity ratio [1]: > 12500
CC50 [2]: > 100000 nM
EC50 (Influenza A virus): 8 nM

CC(C)(C)c1ccc(C(=O)NC(=S)Nc2c(Cl)cc(Cl)cc2Cl)cc1
selectivity ratio [1]: 167
CC50 [2]: 80200 nM
EC50 (Influenza A virus): 480 nM

Cc1ccc(NC(=S)NC(=O)c2ccc(C(C)(C)C)cc2)c(C)c1
selectivity ratio [1]: 2220
CC50 [2]: 97900 nM
EC50 (Influenza A virus): 44 nM

COc1ccccc1C(=O)Nc1ccc(NC(=S)NC(=O)c2ccc(C(C)(C)C)cc2)cc1
selectivity ratio [1]: 2670
CC50 [2]: 72200 nM
EC50 (Influenza A virus): 27 nM

CC(=O)Nc1ccc(NC(=S)NC(=O)c2cc3ccccc3s2)cc1
selectivity ratio [1]: 334
CC50 [2]: 90200 nM
EC50 (Influenza A virus): 270 nM

CC(C)(C)c1ccc(C(=O)NC(=S)Nc2ccc(NC(=O)c3ccccc3)cc2)cc1
EC50 (Influenza B virus [3]): 600 nM
selectivity ratio [1]: 19300
EC50 (Influenza B virus [4]): 700 nM
CC50 [2]: 77200 nM
EC50 (Influenza A virus): 4 nM

CC(=O)Nc1ccc(NC(=S)NC(=O)c2ccc(C(C)C)cc2)cc1
selectivity ratio [1]: 4.2
CC50 [2]: 46900 nM
EC50 (Influenza A virus): 11200 nM

CC(C)(C)c1ccc(C(=O)NC(=S)Nc2cc(Br)cc(Br)c2)cc1
selectivity ratio [1]: 111
CC50 [2]: 70900 nM
EC50 (Influenza A virus): 640 nM

COc1cccc(C(=O)Nc2ccc(NC(=S)NC(=O)c3ccc(C(C)(C)C)cc3)cc2)c1
selectivity ratio [1]: 3140
CC50 [2]: 72200 nM
EC50 (Influenza A virus): 23 nM

CC(=O)Nc1ccc(NC(=S)NC(=O)c2ccc(N(C)C)cc2)cc1
Activity (Influenza A virus): inactive

CCCc1ccc(C(=O)Nc2ccc(NC(=S)NC(=O)c3ccc(C(C)(C)C)cc3)cc2)cc1
selectivity ratio [1]: > 100000
CC50 [2]: > 100000 nM
EC50 (Influenza A virus): 1 nM

CC(C)(C)c1ccc(C(=O)NC(=S)Nc2ccc(N)cc2)cc1
EC50 (Influenza B virus [3]): 4900 nM
selectivity ratio [1]: 4170
EC50 (Influenza B virus [4]): 1900 nM
CC50 [2]: 100000 nM
EC50 (Influenza A virus): 24 nM

CC(C)(C)c1ccc(C(=O)NC(=S)Nc2ccc3ccccc3n2)cc1
selectivity ratio [1]: 110
CC50 [2]: 91700 nM
EC50 (Influenza A virus): 830 nM

CC(=O)N[C@H]1[C@H]([C@H](O)[C@H](O)CO)OC(C(=O)O)=C[C@@H]1N=C(N)N [ZANAMIVIR]
selectivity ratio [1]: > 1540
CC50 [2]: > 100000 nM

CC(C)(C)c1ccc(C(=O)NC(=S)Nc2ccccc2F)cc1
selectivity ratio [1]: > 2220
CC50 [2]: > 100000 nM
EC50 (Influenza A virus): 45 nM

CC(C)(C)c1ccc(C(=O)NC(=S)Nc2ccc(F)cc2)cc1
selectivity ratio [1]: > 164
CC50 [2]: > 100000 nM
EC50 (Influenza A virus): 610 nM

CC(C)(C)c1ccc(C(=O)NC(=S)Nc2ccc(NC(=O)c3ccc(F)cc3)cc2)cc1
selectivity ratio [1]: > 3700
CC50 [2]: > 100000 nM
EC50 (Influenza A virus): 27 nM

COc1ccc(C(=O)NC(=S)Nc2ccc(NC(C)=O)cc2)cc1
Activity (Influenza A virus): inactive

CC(=O)Nc1ccc(NC(=S)NC(=O)c2ccccc2Cl)cc1
Activity (Influenza A virus): inactive

CC(=O)Nc1ccc(NC(=S)NC(=O)c2ccc(Cl)cc2)cc1
Activity (Influenza A virus): inactive

CC(C)(C)c1ccc(C(=O)NC(=S)Nc2ccc(C(F)(F)F)cc2C(F)(F)F)cc1
selectivity ratio [1]: 165
CC50 [2]: 74300 nM
EC50 (Influenza A virus): 450 nM

CC(C)(C)c1ccc(C(=O)NC(=S)Nc2ccccc2Cl)cc1
selectivity ratio [1]: 1330
CC50 [2]: 48000 nM
EC50 (Influenza A virus): 36 nM

CC(C)(C)c1ccc(C(=O)NC(=S)Nc2ccc(NC(=O)c3ccc(Cl)cc3)cc2)cc1
EC50 (Influenza B virus [3]): 900 nM
selectivity ratio [1]: > 33300
EC50 (Influenza B virus [4]): 300 nM
CC50 [2]: > 100000 nM
EC50 (Influenza A virus): 3 nM

CC(C)(C)c1ccc(C(=O)NC(=S)Nc2c(Br)cccc2Br)cc1
selectivity ratio [1]: 417
CC50 [2]: 70900 nM
EC50 (Influenza A virus): 170 nM

CC(C)(C)c1ccc(C(=O)NC(=S)Nc2ccccc2Br)cc1
selectivity ratio [1]: 2660
CC50 [2]: 85100 nM
EC50 (Influenza A virus): 32 nM

Cc1ccc(C(=O)Nc2ccc(NC(=S)NC(=O)c3ccc(C(C)(C)C)cc3)cc2)cc1
selectivity ratio [1]: > 3700
CC50 [2]: > 100000 nM
EC50 (Influenza A virus): 27 nM

CC(C)(C)c1ccc(C(=O)NC(=S)Nc2c(Br)cc(Br)cc2Br)cc1
selectivity ratio [1]: 169
CC50 [2]: 60700 nM
EC50 (Influenza A virus): 360 nM

CC(C)(C)c1ccc(C(=O)NC(=O)Nc2ccccc2F)cc1
selectivity ratio [1]: > 667
CC50 [2]: 97900 nM
EC50 (Influenza A virus): 150 nM

Reference: ChEMBL document CHEMBL5625209, “Rational design and optimization of acylthioureas as novel potent influenza virus non-nucleoside polymerase inhibitors” (Eur J Med Chem, 2023)
